Key:
[1] = system: Blood platelet response to collagen; test: Platelet aggregation inhibition activity (collagen-induced fall in blood platelet concentration); type: in vivo, Male CFLP mice; settings: 2 h after p.o. dose; collagen 400 μg/kg i.v.; Aspirin 600 μmol (108 mg)/kg, p < 0.05; Example 3 5 μmol (1.92 mg)/kg, p = 0.01
Experimental: Male CFLP mice (ca 20 g, n=8) were dosed orally with compound or vehicle (controls) after an overnight fast. Two hours later each mouse received an intravenous dose of collagen (400 μg/kg, pH 6-6.6). Exactly 30 sec. after injection of collagen, each mouse was placed in a chamber of CO2 until respiration ceased. […] Each concentration was expressed as a percent of that obtained in a tail blood sample taken immediately before injection of collagen.

genetically obese mice = test: Anti-obesity activity: carcass lipid in genetically obese mice; type: in vivo
Experimental: The compounds were administered by oral gavage in water or carboxymethyl-cellulose suspension to genetically obese mice daily for 28 days. At the end of the time the carcass composition was determined.

[2] = system: inflammation induced in the rat ear by croton oil; test: Anti-inflammatory activity: croton oil induced inflammation of the rat ear; type: in vivo; settings: 2.0 mg/RAT EAR, 6 hours; activity = significant (5% level) reduction in ear weight vs non-drug treated control
Experimental: The method used is based on that described by G. Tonelli et al (Endocrinology, 77, 625-634, 1965). An inflammation is induced in the rat ear by the application of 50 μl of a 1% solution of croton oil in tetrahydrofuran, test compounds being dissolved in the irritant vehicle. After 6 hours the inflammation is assessed by killing the animals and weighing the ears. Topical anti-inflammatory activity of a compound is generally considered to be shown when a significant (5% level) reduction in ear weight is seen compared to non-drug treated control.

[3] = p.o. daily for 28 days, Ex. 5 mp 102-5: 4.8 mg/kg, control 21.10, Ex. 10: 8.6 mg/kg, control 23.13

SMILES	% Inhibition of response to collagen [1] [%]	g LIPID/MOUSE, TREATED (genetically obese mice; [3]) [g LIPID/MOUSE]	other results
CC(=O)Oc1ccccc1C(=O)O [Aspirin, reference compound]	29	–	–
Cc1ccc(C[C@@H](C)NC[C@@H](O)c2cc3ccccc3o2)cc1 (relative stereo) [Example 5 mp 102-5, N-[2-(4-methylphenyl)-1-methylethyl]-2-(2-benzofuranyl)-2-hydroxyethanamine]	–	16.16	ACTIVITY (topical anti-inflammatory) [2]: Active
Cc1ccc(CC(C)NCC(O)c2cc3ccccc3o2)cc1 (stereo not drawn) [Example 1, N-[2-(4-Methylphenyl)-1-methylethyl]-2-(2-benzofuranyl)-2-hydroxy ethanamine]	–	–	g LIPID/MOUSE, TREATED (genetically obese mice; 4.8 mg/kg p.o. daily, 15 days only, control 16.25): 13.36 g LIPID/MOUSE
Cc1ccc(CCCNCC(O)c2cc3ccccc3o2)cc1 (stereo not drawn) [Example 10, N-[3-(4-Methylphenyl)propyl]-2-(2-benzofuranyl)-2-hydroxyethanamine]	–	19.72	–
COC(=O)COc1ccc(CC(C)NCC(O)c2cc3ccccc3o2)cc1 (stereo not drawn) [Example 3, N-[2-(4-Carbomethoxymethoxyphenyl)-1-methylethyl]-2-(2-benzofuranyl)-2-hydroxyethanamine]	29	–	–

From US4432993A, “Method of treating obesity hyperglycemia, inflammation and platelet aggregation” (priority 1980, dated 1984)
